Holding throughout (type): functional, organism-based
For assay [1], the system named is Mycolicibacterium smegmatis. Put plainly: Antimycobacterial activity against Mycobacterium smegmatis by GFP-based fluorescence assay.
For assay [2], the system named is Mycolicibacterium smegmatis. Put plainly: Antimycobacterial activity against Mycobacterium smegmatis assessed as growth inhibition in mid-logarithmic phase by spectrophotometry.
In assay [3] the test system is Mycolicibacterium smegmatis. Put plainly: Antimycobacterial activity against Mycobacterium smegmatis grown in nitrogen -limited broth medium assessed as growth inhibition in mid-logarithmic phase by GFP-based fluorescence assay. To be noted: Mycolicibacterium smegmatis.
Assay [4] has as its system Mycolicibacterium smegmatis. Put plainly: Antimycobacterial activity against Mycobacterium smegmatis grown in Luria-Bertani broth medium assessed as growth inhibition in mid-logarithmic phase by spectrophotometry. To be noted: Mycolicibacterium smegmatis.
The test system of assay [5] is Mycolicibacterium smegmatis. Description: Antimycobacterial activity against Mycobacterium smegmatis grown in nitrogen -limited broth medium assessed as growth inhibition in mid-logarithmic phase by spectrophotometry. To be noted: Mycolicibacterium smegmatis.
Assay [6] concerns Mycolicibacterium smegmatis. Description: Antimycobacterial activity against Mycobacterium smegmatis grown in Luria-Bertani broth medium assessed as growth inhibition in mid-logarithmic phase by GFP-based fluorescence assay. To be noted: Mycolicibacterium smegmatis.
Assay [7] concerns Mycolicibacterium smegmatis. Description: Antimycobacterial activity against Mycobacterium smegmatis grown in carbon-limited broth medium assessed as growth inhibition in mid-logarithmic phase by GFP-based fluorescence assay. To be noted: Mycolicibacterium smegmatis.
The subject of assay [8] is Mycolicibacterium smegmatis. Description: Antimycobacterial activity against Mycobacterium smegmatis grown in carbon-limited broth medium assessed as growth inhibition in mid-logarithmic phase by spectrophotometry. To be noted: Mycolicibacterium smegmatis.

Converted amounts (≈) assume the structure as drawn. Numbered stars: 1 amine (or outer) side, 2 acyl side, 3 side chain; on linkers, the order of the positions; unused ones are H or OH. Bridge positions count the residues as written; N and C are the ends. Square brackets hold non-standard residues; d marks the D form. Peptide text beside a SMILES is read from it. * marks the point of attachment. ξ: configuration not given here. X1 = N=C1NCCC([C@H](N[*:1])C(=O)[*:2])N1; ΔAla(Z-3-ureido) = NC(=O)N/C=C(\N)C(=O)O; ξβ3hOrn = NCCCC(N)CC(=O)*; Dap = NC[C@H](N)C(=O)O

As for `C[C@@H]1NC(=O)[C@@H](N)CNC(=O)[C@H](C2CCNC(=N)N2)NC(=O)/C(=C/NC(N)=O)NC(=O)[C@H](CNC(=O)CC(N)CCCN)NC1=O.N=C1NCCC([C@@H]2NC(=O)/C(=C/NC(N)=O)NC(=O)[C@H](CNC(=O)CC(N)CCCN)NC(=O)[C@H](CO)NC(=O)[C@@H](N)CNC2=O)N1` (stereo partly drawn) [CAPREOMYCIN] (H-[Dap]S[Dap](ξβ3hOrn)[ΔAla(Z-3-ureido)][X1]; lactam 1-C), the MIC in assay [1] and in assay [2] was 12.5 µM each time. For the same molecule, the IC50 in assay [1] (read-out: IC50) was 1.78 µM; in assay [2], 2.12 µM.
On to `O=C(O)c1cn(C2CC2)c2cc(N3CCNCC3)c(F)cc2c1=O` [CIPROFLOXACIN], for which, in assay [1], the IC50 came out at 1.07 µM and the MIC turned out to be 12.5 µM (≈ 4.14 µg/mL). In assay [2], the IC50 was 1.98 µM and the MIC amounted to 12.5 µM (≈ 4.14 µg/mL).
As for `CC[C@@H](CO)NCCN[C@@H](CC)CO` [ETHAMBUTOL], the MIC in assay [1] and in assay [2] was 12.5 µM (≈ 2.55 µg/mL) throughout. Moreover, the IC50 in assay [1] (read-out: IC50) came out at 3.2 µM; in assay [2] it was 3.66 µM.
Turning to `CCc1cc(C(N)=S)ccn1` [ETHIONAMIDE], the MIC in assay [1] and in assay [2] was 100 µM (≈ 16.6 µg/mL) throughout. In addition, the values for the IC50 in assay [1] (read-out: IC50) and in assay [2] were 6.75 µM and 7.66 µM, respectively.
In the case of `O=C1c2c(O)ccc(O)c2C(=O)c2c(NCCNCCO)ccc(NCCNCCO)c21` [MITOXANTRONE], the IC50 in assay [3] was found to be 5.02 µM; in assay [4], 21.8 µM; in assay [5] it was 5.02 µM; in assay [6], 21.8 µM; in assay [7], 9.7 µM; in assay [8], 9.7 µM. Moreover, the minimal inhibitory concentration (MIC) in assay [3], in assay [4], in assay [5], in assay [6], in assay [7] and in assay [8] was 50 µM (≈ 22.2 µg/mL) in each case.
Regarding `O=C(Nc1ccc([N+](=O)[O-])cc1Cl)c1cc(Cl)ccc1O` [NICLOSAMIDE], the IC50 in assay [3] stood at 4.73 µM; in assay [4], 6.85 µM; in assay [5], 4.73 µM; in assay [6] it was 6.85 µM; in assay [7], 3.31 µM; in assay [8] it was 3.31 µM. For the same molecule, the MIC is 6.25 µM (≈ 2.04 µg/mL) in assay [3]; 12.5 µM (≈ 4.09 µg/mL) in assay [4]; 6.25 µM (≈ 2.04 µg/mL) in assay [5]; 12.5 µM (≈ 4.09 µg/mL) in assay [6]; 6.25 µM (≈ 2.04 µg/mL) in assay [7]; 6.25 µM (≈ 2.04 µg/mL) in assay [8].
Regarding `CC1COc2c(N3CCN(C)CC3)c(F)cc3c(=O)c(C(=O)O)cn1c23` (configuration not stated) [OFLOXACIN], the IC50 in assay [3] worked out at 1.73 µM; in assay [4], 2.03 µM; in assay [5], 1.73 µM; in assay [6], 2.03 µM; in assay [7] it was 3.13 µM; in assay [8], 3.13 µM. Also, the MIC in assay [3] stood at 6.25 µM (≈ 2.26 µg/mL); in assay [4] it was 3.12 µM (≈ 1.13 µg/mL); in assay [5], 6.25 µM (≈ 2.26 µg/mL); in assay [6] it was 3.12 µM (≈ 1.13 µg/mL); in assay [7] it was 6.25 µM (≈ 2.26 µg/mL); in assay [8] it was 6.25 µM (≈ 2.26 µg/mL).
With `N=C(N)c1ccc(OCCCCCOc2ccc(C(=N)N)cc2)cc1` [PENTAMIDINE], the IC50 in assay [3] worked out at 9.1 µM; in assay [4], 23.5 µM; in assay [5], 9.1 µM; in assay [6], 23.5 µM; in assay [7], 11.1 µM; in assay [8], 11.1 µM. Also, the MIC in assay [3] was 50 µM (≈ 17 µg/mL); in assay [4], 50 µM (≈ 17 µg/mL); in assay [5], 50 µM (≈ 17 µg/mL); in assay [6], 50 µM (≈ 17 µg/mL); in assay [7], 25 µM (≈ 8.51 µg/mL); in assay [8] it was 25 µM (≈ 8.51 µg/mL).
In the case of `c1cnc2c(c1)ccc1cccnc12` [PHENANTHROLINE], the IC50 in assay [3] amounted to 5.76 µM; in assay [4] it was 41.6 µM; in assay [5], 5.76 µM; in assay [6], 41.6 µM; in assay [7] it was 4.99 µM; in assay [8], 4.99 µM. Also, the MIC in assay [3] was 12.5 µM (≈ 2.25 µg/mL); in assay [4] it was 50 µM (≈ 9.01 µg/mL); in assay [5] it was 12.5 µM (≈ 2.25 µg/mL); in assay [6], 50 µM (≈ 9.01 µg/mL); in assay [7] it was 12.5 µM (≈ 2.25 µg/mL); in assay [8] it was 12.5 µM (≈ 2.25 µg/mL).
Take `CO[C@H]1/C=C/O[C@@]2(C)Oc3c(C)c(O)c4c(O)c(c(/C=N/N5CCN(C)CC5)c(O)c4c3C2=O)NC(=O)/C(C)=C\C=C\[C@H](C)[C@H](O)[C@@H](C)[C@@H](O)[C@@H](C)[C@H](OC(C)=O)[C@@H]1C` [RIFAMPIN]: the minimal inhibitory concentration (MIC) in assay [1] and in assay [2] was 6.25 µM (≈ 5.14 µg/mL) throughout. The figures for the IC50 in assay [1] (read-out: IC50) and in assay [2] were 3.11 µM and 4.36 µM, respectively.
With `CN[C@@H]1[C@H](O[C@H]2[C@H](O[C@H]3[C@H](O)[C@@H](O)[C@H](N=C(N)N)[C@@H](O)[C@@H]3N=C(N)N)O[C@@H](C)[C@]2(O)C=O)O[C@@H](CO)[C@H](O)[C@H]1O` [STREPTOMYCIN], the MIC in assay [1] and in assay [2] was 1.56 µM (≈ 0.907 µg/mL) in each case. The concentration for half-maximal inhibition (IC50) is 0.48 µM in assay [1] (read-out: IC50) and 0.5 µM in assay [2].
As to `CN(C)[C@@H]1C(O)=C(C(N)=O)C(=O)[C@@]2(O)C(O)=C3C(=O)c4c(O)cccc4[C@@](C)(O)[C@H]3C[C@@H]12` [TETRACYCLINE], the MIC in assay [1] and in assay [2] was 6.25 µM (≈ 2.78 µg/mL) each time. In addition, the IC50 is 0.33 µM in assay [1] (read-out: IC50) and 0.41 µM in assay [2].
`CN1CCN(CCCN2c3ccccc3Sc3ccc(C(F)(F)F)cc32)CC1` [TRIFLUOPERAZINE]: the IC50 in assay [3] was 3.15 µM; in assay [4], 12.3 µM; in assay [5], 3.15 µM; in assay [6] it was 12.3 µM; in assay [7] it was 12.3 µM; in assay [8] it was 12.3 µM. Besides, the MIC in assay [3], in assay [4], in assay [5], in assay [6], in assay [7] and in assay [8] was 50 µM (≈ 20.4 µg/mL) throughout.
As for `CN[C@H](CC(C)C)C(=O)N[C@H]1C(=O)N[C@@H](CC(N)=O)C(=O)N[C@H]2C(=O)N[C@H]3C(=O)N[C@H](C(=O)N[C@H](C(=O)O)c4cc(O)cc(O)c4-c4cc3ccc4O)[C@H](O)c3ccc(c(Cl)c3)Oc3cc2cc(c3O[C@@H]2O[C@H](CO)[C@@H](O)[C@H](O)[C@H]2O[C@H]2C[C@](C)(N)[C@H](O)[C@H](C)O2)Oc2ccc(cc2Cl)[C@H]1O` [VANCOMYCIN], the IC50 in assay [3] was determined as 11.1 µM; in assay [4], 3.18 µM; in assay [5] it was 11.1 µM; in assay [6] it was 3.18 µM; in assay [7] it was 16.7 µM; in assay [8] it was 16.7 µM. Moreover, the MIC is 25 µM (≈ 36.2 µg/mL) in assay [3]; 12.5 µM (≈ 18.1 µg/mL) in assay [4]; 25 µM (≈ 36.2 µg/mL) in assay [5]; 12.5 µM (≈ 18.1 µg/mL) in assay [6]; 25 µM (≈ 36.2 µg/mL) in assay [7]; 25 µM (≈ 36.2 µg/mL) in assay [8].

What is called MIC is the lowest concentration found to suppress growth. What is called IC50 is the concentration that gives 50% inhibition.

These data come from ChEMBL document CHEMBL1649296, “Modifying culture conditions in chemical library screening identifies alternative inhibitors of mycobacteria” (Antimicrob Agents Chemother, 2009).
